Assay results taken from PMC9284491 (Nature Communications, 2022).
Entries after “also recorded” stand apart in the source; their conditions may differ. Read-outs that look alike come from different tables or passages of the source.

How the values were obtained:
[1] = Amcenestrant plasma pharmacokinetics (LC-MS/MS, non-compartmental analysis); type: in vivo, human; conditions: for AUC(0-t) / Cmax / Tmax: human, plasma, oral
Protocol: To evaluate pharmacokinetics in Part A, venous blood samples were collected pre-dose and at regular intervals on cycle 1, day 1 (up to 48 h), on day 3 (up to 24 h), and on day 22 (up to 24 h). […] The validated range was 5 ng/mL to 5000 ng/mL.
In Part B, venous blood samples were collected pre-dose and at regular intervals on cycle 1, day 1 (up to 24 h), and on day 22 (up to 24 h).
NCA was performed using Phoenix® software.

[2] = 24 h urine fraction, renal elimination of amcenestrant; type: in vivo, human; conditions: Part B, QD administration
[3] = test system: CYP3A; assay: 4β-hydroxycholesterol ratio, induction/inhibition effect on CYP3A; type: in vivo, human; conditions: ≥200 mg QD
[4] = test system: ER+/HER2− advanced breast cancer; assay: Antitumor activity per RECIST v1.1 (ORR, CBR, best overall response); type: in vivo, human; conditions: Part A, local review, n = 16
[5] = parameters: method as in PMID 31721572; conditions: preclinical; cited from earlier work
[6] = Part A, repeated QD, Cycle 1 Day 22, fasting, 20 mg, N 3
[7] = Part A, repeated QD, Cycle 1 Day 22, fasting, 150 mg, N 2
[8] = Part A, repeated QD, Cycle 1 Day 22, fasting, 200 mg, N 3
[9] = Part A, repeated QD, Cycle 1 Day 22, fasting, 400 mg, N 3
[10] = Part A, repeated QD, Cycle 1 Day 22, fasting, 600 mg, N 3
[11] = Part B, 400 mg QD, Day 22, N 13

Compound: O=C(O)c1ccc2c(c1)CCCC(c1ccc(Cl)cc1Cl)=C2c1ccc(O[C@H]2CCN(CCCF)C2)cc1 [amcenestrant, 6-(2,4-Dichlorophenyl)−5-[4-[(3S)−1-(3-fluoropropyl)pyrrolidin-3-yl]oxyphenyl]−8,9-dihydro-7H-benzo[7]annulene-2-carboxylic acid]
- total variability of exposure ([1]; 400 mg dose): < 40%
- dose proportionality of exposure ([1]; 20–600 mg QD, single or multiple administrations): did not deviate significantly from dose proportionality; also recorded: exposure increased proportionally with doses up to 600 mg
- accumulation on day 22 ([1]; Part A, doses ≥400 mg QD): No accumulation was observed
- delay of median tmax by food ([1]; Part A, moderate fat breakfast): ≈ 1 h
- food effect on exposure ([1]; Part A, moderate fat breakfast): modestly increased exposure
- CLss/F, Geometric mean (CV%) [1, 6]: 14.8 (75.8) L/h
- CLss/F, Mean ± SD [1, 6]: 18.0 ± 13.7 L/h
- Ctrough, Mean ± SD [1, 6]: 12.6 ± 13.6 ng/mL
- CLss/F, Geometric mean (CV%) [1, 7]: 9.99 (46.3) L/h
- CLss/F, Mean ± SD [1, 7]: 10.6 ± 4.89 L/h
- Ctrough, Geometric mean (CV%) [1, 7]: 134 (15.7) ng/mL
- Ctrough, Mean ± SD [1, 7]: 135 ± 21.2 ng/mL
- CLss/F, Geometric mean (CV%) [1, 8]: 14.9 (28.0) L/h
- CLss/F, Mean ± SD [1, 8]: 15.3 ± 4.30 L/h
- Ctrough, Geometric mean (CV%) [1, 8]: 115 (73.0) ng/mL
- Ctrough, Mean ± SD [1, 8]: 140 ± 102 ng/mL
- CLss/F, Geometric mean (CV%) [1, 9]: 13.5 (95.7) L/h
- CLss/F, Mean ± SD [1, 9]: 18.1 ± 17.4 L/h
- Ctrough, Geometric mean (CV%) [1, 9]: 245 (79.3) ng/mL
- Ctrough, Mean ± SD [1, 9]: 397 ± 315 ng/mL
- CLss/F, Geometric mean (CV%) [1, 10]: 14.4 (26.9) L/h
- CLss/F, Mean ± SD [1, 10]: 14.7 ± 3.96 L/h
- Cmax, Geometric mean (CV%) [1, 10]: 5510 (17.3) ng/mL
- Ctrough, Geometric mean (CV%) [1, 10]: 350 (88.2) ng/mL
- Ctrough, Mean ± SD [1, 10]: 449 ± 396 ng/mL
- Cmax, Geometric mean (CV%) ([1]; Part B, 400 mg QD, Day 1, N 16): 5460 (46.8) ng/mL
- Tlag, Median ([1]; Part B, 400 mg QD, Day 1, N 16): 0 h
- CLss/F, Geometric mean (CV%) [1, 11]: 9.90 (41.0) L/h
- CLss/F, Mean ± SD [1, 11]: 10.6 ± 4.35 L/h
- apparent total clearance from plasma at steady state (CLss/F) ([1]; Part B, 400 mg QD, day 22): 10.6 L/h
- coefficient of variation for AUC0-24h ([1]; Part B, 400 mg QD, day 22): 37.5%
- coefficient of variation for Cmax ([1]; Part B, 400 mg QD, day 22): 28.0%
- AUC(0-t) ([1]; 400 mg, Part B, 400 mg QD, Day 1, N 16, read-out: AUC0-24, Geometric mean (CV%)): 44800 ng·h/mL
- AUC(0-t) ([1]; 400 mg, Part B, 400 mg QD, Day 1, N 16, read-out: AUC0-24, Mean ± SD): 50900 ± 26000 ng·h/mL
- Cmax ([1]; 400 mg, Part B, 400 mg QD, Day 1, N 16, read-out: Cmax, Mean ± SD): 6020 ± 2810 ng/mL
- AUC(0-t) ([1]; 400 mg, Part B, 400 mg QD, Day 22, N 13, read-out: AUC0-24, Mean ± SD): 43200 ± 16200 ng·h/mL
- Cmax ([1]; 400 mg, Part B, 400 mg QD, Day 22, N 13, read-out: Cmax, Geometric mean (CV%)): 4220 ng/mL
- Cmax ([1]; 400 mg, Part B, 400 mg QD, Day 22, N 13, read-out: Cmax, Mean ± SD): 4380 ± 1230 ng/mL
- Tmax ([1]; Part A, single dose day 1, starting from the 150-mg dose, read-out: median time to maximum concentration [tmax]): ~3 h
- Tmax ([1]; Part B, 400 mg QD, Day 1, N 16, read-out: tmax, Median): 3.98 h
- amcenestrant excreted in urine over the 24-h interval [2]: < 0.1 % of the administered dose
- effect on CYP3A liver enzyme activity [3]: can induce cytochrome P450 (CYP) 3 A liver enzyme activity
- objective response rate (ORR) [4]: 6.3%
- stable disease (SD), patients [4]: 50%
- metabolic stability [5]: metabolically stable
